# Reference: patent US7091207B2, “Method of treating myocardial infarction with PDE-5 inhibitors” (Virginia Commonwealth University, priority 2002, dated 2006)
# How the values were obtained:
# [1] = test system: doxorubicin-induced cardiotoxicity in mice; experiment: Chronic mouse model of doxorubicin-induced cardiotoxicity; format: in vivo; conditions: DOX-treated mice; sildenafil citrate 0.7 mg/kg ip
# Procedure: Mice are treated with doxorubicin in the presence or absence of clinically relevant doses of sildenafil citrate, and the left ventricular systolic function is correlateed using 2-dimensional (2D) contrast echocardiography. The actions of dosing sildenafil citrate 24 hours prior to each dose of doxorubicin (Total of 3 doses) versus dosing sildenafil citrate daily for 28 days is tested. Histological examination is performed to assess the ultrastructural alterations including nuclear condensation with coarse chromatin clumping, sarcoplasmic reticulum vacuolization, and mitochondrial fine structure disruption which are known to occur widely in doxorubicin-treated cardiomyocytes. […] The role of sildenafil in attenuation of DOX-induced apoptosis and attenuation of mitochondrial transition pore opening is assessed. The contribution of […] channel opening in rescuing DOX-induced cell death in sildenafil treated mice is determined by using 5-hydroxydecanoate, a selective blocker of the […] channel.
# Materials and methods. […] Weight of all animals is measured weekly and gross heart weight is measured prior to freezing in liquid nitrogen. […] Specifically, nuclear chromatinmargination, mitochondrial swelling, cristae disappearance/matrix clearing, presence or absence of contractile apparatus disarray, and sarcoplasmic reticulum vacuolization is measured.
# [2] = test system: cardiac myocytes from adult mice; experiment: Simulated ischemia/reoxygenation in isolated cardiac myocytes (trypan blue, TUNEL); format: cell-based; conditions: 10 μM, 40 min simulated ischemia
# Procedure: The ability of sildenafil to confer protection against necrosis and apoptosis in cardiac myocytes was tested. Freshly isolated myocytes from adult mice were exposed to simulated ischemia with or without sildenafil (10 μM) for 40 minutes followed by reoxygenation for 60 minutes. The ischemic buffer contained (in mM): 118 NaCl, 24 NaHCO3, 1.0 NaH2PO4, 2.5 CaCl2-2H2O, 1.2 MgCl2, 20 sodium lactate, 16 KCl, 10 2-deoxyglucose (pH adjusted to 6.2). At the end of this protocol, necrotic cell death was evaluated by uptake of trypan blue using a phase contrast microscope. To determine apoptosis, the myocytes were reoxygenated for an extended period of 18 hrs after incubating them in the ischemic buffer for 40 minutes. Apoptosis was determined using the terminal deoxynucleotide nick-end labeling (TUNEL) assay which detects cells undergoing programmed cell death due to DNA fragmentation.
smiles,measurement,setting,value
CCCc1nn(C)c2c(=O)[nH]c(-c3cc(S(=O)(=O)N4CCN(C)CC4)ccc3OCC)nc12 [sildenafil],LV function,[1],improves LV function
same,ultrastructural damage to the heart,[1],reduces ultrastructural damage to the heart
same,necrotic cell death by trypan blue uptake,[2]; 60 min reoxygenation,significantly more blue (i.e. viable) cells
same,apoptosis by TUNEL staining,[2]; 18 hrs reoxygenation,rescues myocytes against apoptotic cell death
